“Also recorded” adds a separate entry of the source. Residues, ends and D or L forms follow the SMILES beside them.
How the values were obtained:
MPO = biological target: T1, MPO (Homo sapiens, UniProt P05164); test: MPO-mediated LDL Trp oxidation (Trp fluorescence); format: biochemical; design: purchased Lee Biosolutions (St. Louis, Mo.); conditions: MPO/H2O2/NO2−, 30 min, room temperature
T1 sequence (P05164 49-745): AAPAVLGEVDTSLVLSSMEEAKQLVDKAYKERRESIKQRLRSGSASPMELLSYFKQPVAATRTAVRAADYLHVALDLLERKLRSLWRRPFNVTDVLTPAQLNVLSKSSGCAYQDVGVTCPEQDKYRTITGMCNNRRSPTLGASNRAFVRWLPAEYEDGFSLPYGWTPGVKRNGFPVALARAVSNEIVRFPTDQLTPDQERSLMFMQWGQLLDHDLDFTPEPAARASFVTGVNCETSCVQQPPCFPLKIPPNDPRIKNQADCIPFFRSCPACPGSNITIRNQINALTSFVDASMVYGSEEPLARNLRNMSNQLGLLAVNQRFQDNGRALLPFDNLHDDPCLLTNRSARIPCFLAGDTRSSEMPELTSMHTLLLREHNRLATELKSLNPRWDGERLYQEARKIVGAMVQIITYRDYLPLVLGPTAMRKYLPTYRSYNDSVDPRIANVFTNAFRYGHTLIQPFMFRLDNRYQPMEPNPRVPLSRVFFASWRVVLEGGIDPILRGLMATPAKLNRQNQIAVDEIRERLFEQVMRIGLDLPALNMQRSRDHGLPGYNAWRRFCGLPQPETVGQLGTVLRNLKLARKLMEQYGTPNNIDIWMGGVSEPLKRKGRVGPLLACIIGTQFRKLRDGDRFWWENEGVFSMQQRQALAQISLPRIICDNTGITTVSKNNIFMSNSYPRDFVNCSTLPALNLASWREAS
Description: MPO-mediated LDL Trp Oxidation: Reaction mixtures containing LDL (0.15 mg/mL), NaNO2 (100 μM), H2O2 (100 μM), MPO (20 nM) and increasing concentrations of KYC in a phosphate buffer (100 mM, pH 7.4) containing DTPA (100 μM) were incubated at room temperature for 30 min. Reactions were stopped by addition of catalase (2,000 units/mL) and the oxidation of Trp in LDL was determined by measuring changes in the intrinsic fluorescence of Trp (Ex 294 nm/Em 345 nm) using a LC-50 fluorometer (Perkin Elmer, Waltham Mass.).

SCD mice [1] = test: Vessel wall thickness of facialis arteries of treated SCD mice; format: in vivo, mouse; conditions: KYC three weeks; P=0.10
Description: Vessel Wall Thickness. After completing the vasodilatation studies, the pressurized vessels were maximally dilated by addition of papaverine (10^−4 mol/L, 4 min), and outside and inside diameters recorded. An index of wall thickness was calculated using the following formula; ([…]/2)/outside diameter, as previously described.

NADPH oxidase (NOX) = biological target: T2, NADPH oxidase (NOX) (Homo sapiens, UniProt P04839); test: PMA-stimulated HL-60 cell superoxide formation (SOD-inhibitable cytochrome C reduction); format: cell-based; conditions: cytochrome C assay
T2 construct: host or cells: HL-60 cells stimulated with PMA
T2 sequence (P04839 2-570 limits assumed): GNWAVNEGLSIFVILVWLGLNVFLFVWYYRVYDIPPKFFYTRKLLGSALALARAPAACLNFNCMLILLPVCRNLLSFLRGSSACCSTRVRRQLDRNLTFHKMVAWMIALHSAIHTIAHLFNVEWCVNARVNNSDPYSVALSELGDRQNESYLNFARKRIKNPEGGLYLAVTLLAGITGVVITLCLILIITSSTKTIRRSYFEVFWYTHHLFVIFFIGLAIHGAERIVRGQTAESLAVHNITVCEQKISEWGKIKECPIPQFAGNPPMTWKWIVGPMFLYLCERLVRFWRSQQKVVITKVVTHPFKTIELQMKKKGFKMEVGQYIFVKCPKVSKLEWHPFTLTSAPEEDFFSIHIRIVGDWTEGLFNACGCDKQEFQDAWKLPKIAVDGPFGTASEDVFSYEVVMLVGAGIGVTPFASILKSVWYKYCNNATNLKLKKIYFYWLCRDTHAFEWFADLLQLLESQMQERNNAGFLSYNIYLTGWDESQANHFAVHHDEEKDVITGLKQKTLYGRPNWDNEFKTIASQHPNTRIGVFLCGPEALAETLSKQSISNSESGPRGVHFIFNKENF
T2 sequence (P13498 2-195 partner limits assumed): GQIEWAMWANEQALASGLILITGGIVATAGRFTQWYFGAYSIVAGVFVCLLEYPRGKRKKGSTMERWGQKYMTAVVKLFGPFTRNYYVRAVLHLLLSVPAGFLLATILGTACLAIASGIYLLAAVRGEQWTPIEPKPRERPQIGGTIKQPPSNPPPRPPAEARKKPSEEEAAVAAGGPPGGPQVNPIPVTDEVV
Description: PMA-induced Superoxide Anion Formation. HL-60 cells were cultured in RPMI 1640 medium containing 10% FCS (passage 20-50). HL-60 cells were harvested by centrifugation (1000 rpm, 10 min), washed 2× with phosphate buffer (10 mM, pH 7.4) with NaCl (138 mM), KCl (2.67 mM), CaCl2 (0.901 mM), MgCl2 (0.493 mM) and glucose (1 mg/ml) to remove culture medium. The HL-60 cells (6×10^6/0.5 ml) were re-suspended in DPBS. After stimulation with PMA (10 μM), the HL-60 cells were incubated with cytochrome C (40 μM) with or without superoxide dismutase at 37° C. for 30 min. The reaction was stopped by centrifugation. Cytochrome C reduction was measured at 550 nm on a UV-Vis spectrophotometer (Agilent, Model 8453).
PMA-stimulated HL-60 cell O2.^− Formation: HL-60 cells were harvested by centrifugation (1000 rpm, 10 min), washed twice with DPBS with glucose to remove culture medium. The HL-60 cells (1.2×10^7/ml) were re-suspended in DPBS with glucose. After stimulation with PMA (10 μM), the HL-60 cells were incubated with cytochrome C (40 μM) with or without superoxide dismutase (500 units/mL) at 37° C. for 10 min and then the HL-60 cells were removed by centrifugation. Cytochrome C reduction in supernatants was measured at 550 nm using a UV-Vis spectrophotometer (Agilent, Model 8453).

SCD mice [2] = test: Immunofluorescence of aortas of treated SCD mice (chlorotyrosine, MPO); format: in vivo, mouse; conditions: KYC IP 0.3 mg/kg/d, three weeks, vs non-treated SCD mice
Description: Immunofluorescence Studies. In a separate study, SCD mice were treated with KYC (IP, 0.3 mg/kg/d). After three weeks treatment, mice were deeply anesthetized and euthanized by exsanguination. Thoracic and abdominal aortas were surgically removed and rinsed free of blood elements using ice cold PBS. Aortas were fixed, imbedded in paraffin, and sectioned.

MPO-dependent oxidation of Trp residues in LDL (in words) (MPO): protected the Trp residues
SMILES: CC(=O)N[C@@H](CCCCN)C(=O)N[C@@H](Cc1ccc(O)cc1)C(=O)N[C@@H](CS)C(N)=O [KYC, N-acetyl Lysyltyrosylcysteine Amide] (Ac-Lys-Tyr-Cys-NH2)
Vessel wall thickness (in words) (SCD mice [1]): reduces vessel wall thickness
O2.− production in PMA-stimulated HL-60 cells (in words) (NADPH oxidase (NOX)): neither KYC nor KYC disulfide have any significant effect; also recorded: Neither KYC nor KYC disulfide had any significant effect
Chlorotyrosine levels in aortas (in words) (SCD mice [2]): reduced
MPO levels in aortas (in words) (SCD mice [2]): reduced

— patent US8937039B2, “Peptide-based peroxidase inhibitors and methods of using same” (The Medical College of Wisconsin, Inc., priority 2009, dated 2015)
